Assay results as given in ChEMBL document CHEMBL1142033, “Synthesis of isonicotinic acid N'-arylidene-N-[2-oxo-2-(4-aryl-piperazin-1-yl)-ethyl]-hydrazides as antituberculosis agents” (2005).
≈ marks a conversion by molar mass, not a printed value.

Assays:
[1] = test system: Mycobacterium tuberculosis; assay: Minimum inhibitory concentration against Mycobacterium tuberculosis H37Rv ATCC 27294; format: functional
[2] = test system: Mycobacterium tuberculosis; assay: Minimum inhibitory concentration against sensitive Mycobacterium tuberculosis clinical isolates; N=9; format: functional
[3] = test system: Mycobacterium tuberculosis; assay: Minimum inhibitory concentration against sensitive Mycobacterium tuberculosis clinical isolates; N=9; range=8-16; format: functional
[4] = test system: Mycobacterium tuberculosis; assay: Minimum inhibitory concentration against sensitive Mycobacterium tuberculosis clinical isolates; N=9; range=2-4; format: functional
[5] = test system: Mycobacterium tuberculosis; assay: Minimum inhibitory concentration against sensitive Mycobacterium tuberculosis clinical isolates; N=9; range=4-8; format: functional
[6] = test system: Mycobacterium tuberculosis; assay: Minimum inhibitory concentration against sensitive Mycobacterium tuberculosis clinical isolates; N=9; range=1-4; format: functional
[7] = test system: Mycobacterium tuberculosis; assay: Minimum inhibitory concentration against sensitive Mycobacterium tuberculosis clinical isolates; N=9; Range = 0.12-0.25; format: functional
[8] = test system: Mycobacterium tuberculosis; assay: microbe, parasite or virus in culture
Description: Minimum inhibitory concentration against sensitive Mycobacterium tuberculosis clinical isolates; N=9; Range=0.03-0.5

Structure (SMILES) | MIC [1] [µg/mL] | MIC [2] [µg/mL] | other results
O=C(CN(/N=C/c1ccccc1Cl)C(=O)c1ccncc1)N1CCN(c2ccc(F)cc2)CC1 | > 16 | > 16 | –
O=C(CN(/N=C/c1cccc(Cl)c1)C(=O)c1ccncc1)N1CCN(c2ccc([N+](=O)[O-])cc2)CC1 | > 16 | > 16 | –
O=C(CN(/N=C/c1ccc(Cl)cc1Cl)C(=O)c1ccncc1)N1CCN(c2ccc(Cl)cc2)CC1 | 8 (≈ 15.1 µM) | 8 (≈ 15.1 µM) | –
O=C(CN(/N=C/c1ccc(Cl)cc1Cl)C(=O)c1ccncc1)N1CCN(c2ccc(F)cc2)CC1 | > 16 | – | MIC [3]: 16 µg/mL (≈ 31.1 µM)
O=C(CN(/N=C/c1cccc(Cl)c1)C(=O)c1ccncc1)N1CCN(c2ccc(Cl)cc2)CC1 | > 16 | > 16 | –
COc1ccccc1N1CCN(C(=O)CN(/N=C/c2ccc(Cl)cc2)C(=O)c2ccncc2)CC1 | > 16 | > 16 | –
COc1ccccc1N1CCN(C(=O)CN(/N=C/c2ccccc2Cl)C(=O)c2ccncc2)CC1 | > 16 | > 16 | –
O=C(CN(/N=C/c1ccc(Cl)cc1)C(=O)c1ccncc1)N1CCN(c2ccc(Cl)cc2)CC1 | > 16 | > 16 | –
O=C(CN(/N=C/c1ccc(Cl)cc1Cl)C(=O)c1ccncc1)N1CCN(c2cccc(C(F)(F)F)c2)CC1 | > 16 | > 16 | –
O=C(CN(/N=C/c1ccccc1Cl)C(=O)c1ccncc1)N1CCN(c2ccccc2)CC1 | > 16 | – | MIC [3]: 16 µg/mL (≈ 34.6 µM)
O=C(CN(/N=C/c1ccccc1Cl)C(=O)c1ccncc1)N1CCN(c2ccc([N+](=O)[O-])cc2)CC1 | > 16 | > 16 | –
Cc1cccc(N2CCN(C(=O)CN(/N=C/c3ccc(Cl)cc3Cl)C(=O)c3ccncc3)CC2)c1 | > 16 | > 16 | –
O=C(CN(/N=C/c1ccccc1Cl)C(=O)c1ccncc1)N1CCN(c2cccc(Cl)c2)CC1 | > 16 | > 16 | –
Cc1cccc(N2CCN(C(=O)CN(/N=C/c3ccccc3Cl)C(=O)c3ccncc3)CC2)c1 | > 16 | > 16 | –
O=C(CN(/N=C/c1ccc(Cl)cc1)C(=O)c1ccncc1)N1CCN(c2ccc(F)cc2)CC1 | > 16 | > 16 | –
COc1ccccc1N1CCN(C(=O)CN(/N=C/c2cccc(Cl)c2)C(=O)c2ccncc2)CC1 | > 16 | > 16 | –
O=C(CN(/N=C/c1ccccc1Cl)C(=O)c1ccncc1)N1CCN(c2cccc(C(F)(F)F)c2)CC1 | > 16 | > 16 | –

Structure (SMILES) | MIC [1] [µg/mL] | MIC [2] [µg/mL] | other results
O=C(CN(/N=C/c1ccc(Cl)cc1Cl)C(=O)c1ccncc1)N1CCN(c2cccc(Cl)c2)CC1 | > 16 | > 16 | –
O=C(CN(/N=C/c1cccc(Cl)c1)C(=O)c1ccncc1)N1CCN(c2ccc(F)cc2)CC1 | > 16 | > 16 | –
O=C(CN(/N=C/c1cccc(Cl)c1)C(=O)c1ccncc1)N1CCN(c2cccc(Cl)c2)CC1 | > 16 | > 16 | –
O=C(CN(/N=C/c1ccc(Cl)cc1)C(=O)c1ccncc1)N1CCN(c2ccc([N+](=O)[O-])cc2)CC1 | > 16 | > 16 | –
COc1ccccc1N1CCN(C(=O)CN(/N=C/c2ccc(Cl)cc2Cl)C(=O)c2ccncc2)CC1 | > 16 | > 16 | –
O=C(CN(/N=C/c1ccccc1Cl)C(=O)c1ccncc1)N1CCN(c2ccc(Cl)cc2)CC1 | > 16 | > 16 | –
O=C(CN(/N=C/c1ccc(Cl)cc1Cl)C(=O)c1ccncc1)N1CCN(Cc2ccc3c(c2)OCO3)CC1 | – | 0.5 (≈ 0.902 µM) | Range of MIC [1]: 1 µg/mL
O=C(CN(/N=C/c1ccc(Cl)cc1Cl)C(=O)c1ccncc1)N1CCN(c2ccc([N+](=O)[O-])cc2)CC1 | > 16 | > 16 | –
O=C(CN(/N=C/c1cccc(Cl)c1)C(=O)c1ccncc1)N1CCN(Cc2ccc3c(c2)OCO3)CC1 | 4 (≈ 7.69 µM) | – | MIC [4]: 4 µg/mL (≈ 7.69 µM)
O=C(CN(/N=C/c1ccc(Cl)cc1Cl)C(=O)c1ccncc1)N1CCN(c2ccccc2)CC1 | > 16 | > 16 | –
O=C(CN(/N=C/c1ccccc1Cl)C(=O)c1ccncc1)N1CCN(Cc2ccc3c(c2)OCO3)CC1 | 4 (≈ 7.69 µM) | – | MIC [5]: 8 µg/mL (≈ 15.4 µM)
Cc1cccc(N2CCN(C(=O)CN(/N=C/c3cccc(Cl)c3)C(=O)c3ccncc3)CC2)c1 | > 16 | > 16 | –
O=C(CN(/N=C/c1ccc(Cl)cc1)C(=O)c1ccncc1)N1CCN(Cc2ccc3c(c2)OCO3)CC1 | 2 (≈ 3.85 µM) | – | MIC [6]: 4 µg/mL (≈ 7.69 µM)
O=C(CN(/N=C/c1ccccc1Cl)C(=O)c1ccncc1)N1CCN(c2cccc(Cl)c2Cl)CC1 | > 16 | > 16 | –
O=C(CN(/N=C/c1cccc(Cl)c1)C(=O)c1ccncc1)N1CCN(c2ccccc2)CC1 | > 16 | > 16 | –
NNC(=O)c1ccncc1 [ISONIAZID] | 0.25 (≈ 1.82 µM) | – | MIC [7]: 0.25 µg/mL (≈ 1.82 µM)
CO[C@H]1/C=C/O[C@@]2(C)Oc3c(C)c(O)c4c(O)c(c(/C=N/N5CCN(C)CC5)c(O)c4c3C2=O)NC(=O)/C(C)=C\C=C\[C@H](C)[C@H](O)[C@@H](C)[C@@H](O)[C@@H](C)[C@H](OC(C)=O)[C@@H]1C [RIFAMPIN] | 0.125 (≈ 0.152 µM) | – | MIC [8]: 0.5 µg/mL (≈ 0.608 µM)
